Publication PMC4535766, “Antiprotozoal Activity Profiling of Approved Drugs: A Starting Point toward Drug Repositioning” (PLoS ONE, 2015)
Where a name gives a salt, the structure may show the parent alone. Read-outs that look alike come from different tables or passages of the source.

Experiments:
[1] = test system: T. b. rhodesiense strain STIB 900, trypomastigotes; test: In vitro activity against T. b. rhodesiense, serial drug dilution assay; settings: for IC50: Trypanosoma brucei; for selectivity ratio: rat
Protocol: (§1) Drug stock solutions (10mg/ml) were in DMSO (100%). […] Selectivity index (SI) was calculated as IC50 L6 cells/IC50 parasite.

in vitro = settings: rat
Protocol: as §1

[2] = test system: T. cruzi, strain Tulahuen C4, intracellular amastigotes; test: microbe, parasite or virus in culture; settings: Trypanosoma cruzi, TULAHUEN
Protocol: as §1

[3] = test system: axenic amastigotes of L. donovani, strain MHOM-ET-67/L82; test: In vitro activity against L. donovani axenic amastigotes, serial drug dilution assay; assay type: cell-based, Leishmania donovani; settings: Leishmania donovani
Protocol: as §1

[4] = test system: intracellular amastigotes of L. donovani strain MHOM-ET-67/L82; test: Activity against Leishmania donovani intracellular amastigotes in mouse peritoneal macrophages; settings: Leishmania donovani, Peritoneal macrophage, in Mus musculus
Protocol: After 24 h 1.2 x 10^5 amastigote L. donovani in 100 μl were added. The amastigotes were taken from an axenic culture grown at pH 5.4. Four hours later, the medium containing free amastigote forms was removed and replaced by fresh medium. The next day the medium was replaced by medium with or without a serial drug dilution of seven 3-fold dilution steps covering a range from 30 to 0.04 μg/ml. Parasite growth in the presence of the drug was compared to control wells. After 96 h of incubation, the medium was removed and the slides fixed with methanol for 10 min followed by staining with a 10% Giemsa solution. Infected and non-infected macrophages were counted for the control cultures and those exposed to the serial drug dilutions. The infection rates were determined. The results were expressed as a percentage reduction in parasite burden compared to control wells, and the IC50 was calculated by linear regression analysis. The collection of mouse peritoneal macrophages was done at the Swiss Tropical and Public Health Institute (Basel) according to the rules and regulations for the protection of animal rights ("Tierschutzverordnung") of the Swiss "Bundesamt für Veterinärwesen".

P. falciparum strain K1 = test: In vitro activity against P. falciparum, serial drug dilution assay; settings: for Activity against P. falciparum (in words): in vitro; for selectivity ratio: rat
Protocol: as §1

[5] = Cytotoxicity on macrophages infected with L. donovani; assay type: cell-based, mouse; settings: mouse
[6] = axenic amastigotes, strain MHOM-ET-67/L82, means of two independent assays, read-out: IC50 L. don. axen.
[7] = 96 h, read-out: IC50 L. don. intracell
[8] = Plasmodium falciparum, K1, read-out: IC50 P. falc. K1
[9] = macrophages infected with L. donovani, read-out: IC50 Cytotox. mac.inf.
[10] = L6 cells, IC50 Cytotox. L6, L6 cells, means of two independent assays
[11] = mouse peritoneal macrophages infected with L. donovani, macrophages infected with L. donovani, read-out: IC50 Cytotox. mac.inf.
[12] = read-out: L. don. intracell IC50
[13] = infected macrophages, read-out: Cytotox. mac.inf. IC50
[14] = L. donovani axenic amastigotes, read-out: L. don. axen. IC50
[15] = Plasmodium falciparum, K1, read-out: P. falc. IC50

SMILES	IC50 ([1]; read-out: IC50 T. b. rhod.) [µM]	IC50 ([2]; read-out: IC50 T. cruzi) [µM]	IC50 [3, 6] [µM]	IC50 [4, 7] [µM]	IC50 (in vitro; IC50 Cytotox. L6) [µM]	IC50 (P. falciparum strain K1; [8]) [µM]	IC50 at 96 h [5, 9] [µM]	also measured
CCCSc1ccc2nc(NC(=O)OC)[nH]c2c1 [Albendazole]	14.7	12.3	> 113	> 3.77				IC50 (in vitro): 0.41 µM
NC12CC3CC(CC(C3)C1)C2 [Amantadine]	52.8	371	> 595	> 198	215	5.67	> 198	
CN(C)CCC=C1c2ccccc2CCc2ccccc21 [Amitriptyline]	3.03	35.1	131	> 10.8		1.16	36.1	selectivity ratio ([1]; Selectivity index: IC50 Cytotoxicity L6/ IC50 T. b. rhodesiense): 14; IC50 (in vitro): 42.2 µM; Activity against P. falciparum (in words) (P. falciparum strain K1): micromolar range
Clc1ccc2c(c1)C(N1CCNCC1)=Nc1ccccc1O2 [Amoxapine]					16.2		31.9	
CC(C)CN(C[C@@H](O)[C@H](Cc1ccccc1)NC(=O)O[C@H]1CCOC1)S(=O)(=O)c1ccc(N)cc1 [Amprenavir]	28.5	105	113	> 59.3		15.2	> 59.3	IC50 (in vitro): 160 µM
COC(=O)N[C@H](C(=O)N[C@@H](Cc1ccccc1)[C@@H](O)CN(Cc1ccc(-c2ccccn2)cc1)NC(=O)[C@@H](NC(=O)OC)C(C)(C)C)C(C)(C)C [Atazanavir (Sulfate), Atazanavir]	12.7	33.3	24.1	> 37.5		7.95		IC50 (in vitro; [10]): 46.5 µM; IC50 at 96 h [5, 11]: > 37.5 µM
CC(Cc1cccc(C(F)(F)F)c1)NCCOC(=O)c1ccccc1 (stereo not shown) [Benfluorex]	21.1	73.7	243	54.4	49.1	6.52	> 85.4	
O=C(Cn1ccnc1[N+](=O)[O-])NCc1ccccc1 [Benznidazole]		1.99						
c1ccc(-c2ccc(C(c3ccccc3)n3ccnc3)cc2)cc1 (stereo not shown) [Bifonazole]	26.8	0.003	5.48	> 32.2	39.3	3.18	> 32.2	
O=C(O)COCCN1CCN(C(c2ccccc2)c2ccc(Cl)cc2)CC1 (stereo not shown) [Cetirizine (Hydrochloride), Cetirizine]	99.5	120	186	> 70.5	149	20	> 70.5	
CCN(CC)CCCC(C)Nc1ccnc2cc(Cl)ccc12 (stereo not shown) [Chloroquine (Diphosphate), Chloroquine]	3.81					0.17		selectivity ratio [1]: 13; IC50 (in vitro): 50.6 µM; IC50 ([2]; read-out: T. cruzi IC50): 99.2 µM; IC50 ([3]; read-out: L. don. axen. IC50): > 196 µM; IC50 [4, 12]: > 58.9 µM; selectivity ratio (P. falciparum strain K1): 298; IC50 (P. falciparum strain K1; read-out: IC50 P. falc. K1): 0.13 µM; IC50 at 96 h [5, 13]: > 58.9 µM
CN(C)CCCN1c2ccccc2Sc2ccc(Cl)cc21 [Chlorpromazine]	1.25	17.2	48.5	> 9.41	12.3	3.03	31.4	
CN/C(=N/CCSCc1nc[nH]c1C)NC#N [Cimetidine]	> 396	351	> 396	> 119	302	29.2	> 119	
O=C(O)c1cn(C2CC2)c2cc(N3CCNCC3)c(F)cc2c1=O [Ciprofloxacin]								IC50 ([1]; read-out: T. b. rhod. IC50): 35.9 µM; IC50 (in vitro; Cytotox. L6 IC50): 118 µM; IC50 ([2]; read-out: T. cruzi IC50): 92 µM; IC50 [3, 14]: > 302 µM; IC50 [4, 12]: > 90.5 µM; IC50 (P. falciparum strain K1; [15]): 13.2 µM; IC50 at 96 h [5, 13]: > 90.5 µM
CCN(CC)CCOc1ccc(C(=C(Cl)c2ccccc2)c2ccccc2)cc1 [Clomiphene]								IC50 (in vitro; Cytotox. L6 IC50): 13.1 µM; MCC at 96 h [5, 13]: 24.6 µM
CN(C)CCCN1c2ccccc2CCc2ccc(Cl)cc21 [Clomipramine]					19.8		31.8	

SMILES	IC50 ([1]; read-out: IC50 T. b. rhod.) [µM]	IC50 ([2]; read-out: IC50 T. cruzi) [µM]	IC50 [3, 6] [µM]	IC50 [4, 7] [µM]	IC50 (in vitro; IC50 Cytotox. L6) [µM]	IC50 (P. falciparum strain K1; [8]) [µM]	IC50 at 96 h [5, 9] [µM]	also measured
Clc1ccc(C(OCCN2CCCCC2)c2ccccc2)cc1 (stereo not shown) [Cloperastine]	4.91	9.46	265	> 30.3		0.87		IC50 (in vitro; [10]): 43.4 µM; Activity against P. falciparum (in words) (P. falciparum strain K1): selective activities; selectivity ratio (P. falciparum strain K1; Selectivity index: IC50 Cytotoxicity L6/ IC50 P. falciparum): 50; MCC at 96 h ([5]; mouse peritoneal macrophages infected with L. donovani, read-out: IC50 Cytotox. mac.inf.): 90.9 µM
C#C[C@]1(O)CC[C@H]2[C@@H]3CCC4=Cc5oncc5C[C@]4(C)[C@H]3CC[C@@]21C [Danazol]								IC50 ([1]; read-out: T. b. rhod. IC50): 45.9 µM; IC50 (in vitro; Cytotox. L6 IC50): 32 µM; IC50 ([2]; read-out: T. cruzi IC50): 6.25 µM; IC50 [3, 14]: 10.2 µM; IC50 [4, 12]: > 29.6 µM; IC50 (P. falciparum strain K1; [15]): 14.1 µM; IC50 at 96 h [5, 13]: > 29.6 µM
CC(C)CN(C[C@@H](O)[C@H](Cc1ccccc1)NC(=O)O[C@H]1CO[C@H]2OCC[C@H]21)S(=O)(=O)c1ccc(N)cc1 [Darunavir]	31.4	92.2	125	> 54.8		46.9		
CNCCC(Oc1ccc(C(F)(F)F)cc1)c1ccccc1 (stereo not shown) [Fluoxetine]					15			Activity against P. falciparum (in words) (P. falciparum strain K1): micromolar range; MCC at 96 h [5, 9]: 32.3 µM
OCCN1CCN(CCCN2c3ccccc3Sc3ccc(C(F)(F)F)cc32)CC1 [Fluphenazine]					11.5		22.9	Activity against P. falciparum (in words) (P. falciparum strain K1): micromolar range
CCC(C)n1ncn(-c2ccc(N3CCN(c4ccc(OCC5COC(Cn6cncn6)(c6ccc(Cl)cc6Cl)O5)cc4)CC3)cc2)c1=O (stereo not shown) [Itraconazole]	8.53	0.004	2.42	> 1.42	1.11	1.37		
CC(=O)N1CCN(c2ccc(OCC3COC(Cn4ccnc4)(c4ccc(Cl)cc4Cl)O3)cc2)CC1 (stereo not shown) [Ketoconazole]	33.1	0.27	38.8	> 18.8				IC50 (in vitro): 51 µM
Nc1nc(N)nc(Nc2ccc([As]3SCC(CO)S3)cc2)n1 (stereo not shown) [Melarsoprol]	0.01							
CCCCCCCCCCCCCCCCOP(=O)([O-])OCC[N+](C)(C)C [Miltefosine]				1.21				
Cc1ncc([N+](=O)[O-])n1CC(O)CCl (stereo not shown) [Ornidazole]	25.9	130	> 136	> 136	> 408		> 136	
CC(C)c1nc(CN(C)C(=O)N[C@H](C(=O)N[C@@H](Cc2ccccc2)C[C@H](O)[C@H](Cc2ccccc2)NC(=O)OCc2cncs2)C(C)C)cs1 [Ritonavir]	4.3	20.7	8.97	> 41.6		16.2		
Cn1c([N+](=O)[O-])cnc1N1CCN(S(C)(=O)=O)C1=O [Satranidazole]	18.7	19.1	10.4	> 104				IC50 (in vitro; [10]): > 311 µM; IC50 at 96 h [5, 11]: > 104 µM
Cc1ncc([N+](=O)[O-])n1CC(C)O (stereo not shown) [Secnidazole]	28.7	> 161	> 161	> 161	> 483		> 161	
CSc1ccc2c(c1)N(CCC1CCCCN1C)c1ccccc1S2 (stereo not shown) [Thioridazine]					5.39			MCC at 96 h [5, 13]: 25.8 µM
CCS(=O)(=O)CCn1c([N+](=O)[O-])cnc1C [Tinidazole]	16.6	> 81	> 81	> 81	> 243		> 81	Activity against T. b. rhodesiense (in words) ([1]; in vitro): inactive
